Assays:
Type in all cases: in vivo, DBA/1 LacJ mice
lymph node cells = test: Lymph node cell mitogen and antigen proliferative responses (MTT) from treated CIA mice; conditions: lymphocytes from mice treated 40 mg/kg i.p.; p<0.05
Experimental: Spleen and lymph nodes were removed at sacrifice, and mitogen responses to Con A and LPS, and antigen proliferative responses to type II collagen were determined using standard techniques. Lymph nodes and spleens were harvested and 1 ml of cell suspension (2.5×10^6/ml) cultured in 12-well tissue culture plates (Costar, Corning, N.Y.) with various stimuli in complete RPMI-1640 medium. Cells were incubated for 3 days at 37° C. in a 5% CO2 atmosphere in the presence of mitogen or antigen. 20 µl of MTT (a mitochondrial enzyme substrate) solution (5 mg/ml; Sigma, St Louis, Mo.) was added per well. After 6 hours, the culture supernatant was discarded, and 200 µl of 10% SDS solution added to each well. After incubation at 37° C. overnight, the optical density at 590 nm was read using a microplate photospectrometer (Molecular Devices, CA). The mean and OD values, which provide a measure of cell proliferation, were recorded for each cell sample with respect to antigen stimulation. Antigen specific responses were expressed as (OD590 [Stimulated Culture]−OD590 [Spontaneous proliferation culture])/OD590 [Spontaneous proliferation culture].

[1] = test system: Type II collagen-induced arthritis (CIA) in mice; test: Collagen-induced arthritis (CIA) mouse model, clinical assessment (involved paws, arthritis score); conditions: for arthritis score vs saline control treated mice (FIG. 2), overall statement: CIA mice, route not specified; for Day post the start of therapy from which a significant reduction (p<0.02) in arthritis score was achieved: each agent at its regimen, Formula III via i.p.
Source text: Type II collagen-induced arthritis (CIA) in mice is an accepted experimental model of arthritis with a number of pathological, immunological and genetic features in common with rheumatoid arthritis. This disease is induced by immunization of susceptible strains of mice with type II collagen, the major component of joint cartilage. A progressive, inflammatory arthritis develops in the majority of immunized animals, which is characterized clinically by erythema and edema, with affected paw width increases of typically 100%. A clinical scoring index has been developed to assess disease progression to joint distortion and spondylitis. […] Immunological laboratory findings include high antibody levels to type II collagen and hypergammaglobulinemia.
This study was designed to evaluate the anti-inflammatory and anti-arthritic activity of compound of Formula III using the CIA model by observing changes in immune parameters due to treatment. The animals were administered oral corticosteroid, Enbrel, an injectable TNF inhibitor, and compound of Formula III using both oral and parenteral delivery. Seventy-five DBA/1 LacJ mice 8-10 weeks of age were obtained from Jackson Labs and quarantined in our facility for 10 days prior to experimentation. All mice weighed >16 grams at the start of the experiment. Mice were pre-bled by retro-orbital puncture, and injected with 100 μg Bovine type II collagen in Freund's complete adjuvant (FCA) intradermally at the base of the tail. Mice were monitored by daily examination for the onset of disease. Mice that developed CIA between 20 days post immunization and 42 days post immunization were assigned to one of five treatment groups on a rotational basis (to normalize onset date), and ten mice were assigned to each group. For administration, compound of Formula III was solubilized in sterile saline. To facilitate drugs delivered by oral administration, carboxymethylcellulose was added to a final concentration of 4% in all gavage solutions. Compounds were administered according to the following schedule: • Group 1. 100 μl sterile saline vehicle injected intraperitoneally (i.p.)×3/week. • Group 2. 100 μl sterile saline containing compound of Formula III at 40 mg/kg injected i.p.×3/week. • Group 3. 100 μl sterile saline containing 100 μg Enbrel injected i.p.×3/week. • Group 4. 100 μl sterile saline containing compound of Formula III at 40 mg/kg gavaged×5/week.
Group 5. 100 μl sterile saline containing prednisolone 10 mg/kg gavaged×5/week.
Mice were weighed weekly, and overall health status noted. Arthritiic animals were clinically assessed by visual inspection five times per week, and paw swelling quantified by caliper measurements made three times per week, until seven weeks after the initial onset of arthritis. All animals were assessed individually from the time of disease onset, and the appropriate findings were entered into clinical report forms.

total serum Ig = test: ELISA of total serum immunoglobulin levels in CIA mice; conditions: prednisolone gavage; Formula III i.p.; vs control at disease onset or conclusion of trial
Experimental: (§1) All mice were pre-bled prior to the start of the trial, subsequently at onset of arthritis and at the completion of the trial. Sera were separated and stored at −80° C. ELISA assays were performed to determine anti-type II collagen antibody levels and total immunoglobulin levels.
Serum Ig levels was assessed using an ELISA assay. Dynatech Immulon I 96 well ELISA plates were coated with a 1/250 dilution of rabbit anti-mouse IgG (Axell) in PBS overnight at 4° C. Plates were washed ×3 with PBS containing 0.05% Tween, and blocked by the addition of 5% BSA in PBS. Serum samples diluted 1/400 in PBS/BSA was dispensed in triplicate, and a reference curve constructed by a doubling dilution titer of mouse Ig reference serum (Miles) from 1/500 to 1/256,000. The plate was incubated overnight at room temperature, and washed ×3 with PBS/Tween. One hundred μl of goat anti-IgG conjugated with alkaline phosphatase (Fisher-Biotek) (1:500 dilution in Milk/PBS/Tween) was added, and the incubation continued for 1 hour at 37° C. After washing×3 with PBS/Tween, 100 μl of paranitrophenyl phosphate solution (PNPP tablets, Sigma) in diethylolamine buffer was added to each well, and the reaction allowed to proceed for 20 minutes in the dark. The plate was read at 405 nm using a Photospectrometer (Molecular Devices), and the data analyzed using the SOFTmax analytical software package. […]

[2] = test system: anti-type II collagen antibody; conditions: after seven weeks of treatment; for terminal anti-CII levels compared with control mice: p<0.01, prednisolone gavage, Formula III i.p.; for terminal anti-CII levels compared with titers at disease onset: prednisolone 10 mg/kg gavage, Formula III 40 mg/kg i.p.
Experimental: as §1
ELISA plates (Nunc-Immuno plates, Denmark) were coated with 100 μl of coating buffer (0.4M phosphate buffer ph7.6) containing 5 μg of type II collagen, at 4° C. overnight. Plates were washed 3 times with PBS containing 0.05% Tween 20 (Sigma, St. Louis, Mo.) and non specific binding was blocked by PBS containing 5% non fat milk overnight at 4° C. Mouse sera diluted to 1/100 in 5% milk/PBS was added to each well and incubated overnight at 4° C. Subsequently, the plates were washed six times in PBS containing 0.05% Tween-20 and incubated with alkaline phosphatase conjugated goat anti-mouse Ig (Southern Biotechnology Associates, Birmingham, Ala.) at 37° C. for 1 hour. Plates were washed 6 times again and developed for 40 minutes in the dark, using p-nitrophenyl phosphate (Sigma, St. Louis, Mo.) as a chromatogen substrate. The resulting optical density was measured at 405 nm by using a UV max spectrophotometer (Molecular Devices, CA). Negative pre-bleed control sera and a standard mouse anti-CII antiserum were titered on each plate to ensure uniformity of the assay. Antibody binding was expressed as OD405 units-blank.

Row | Compound | lymph node cell response to LPS (lymph node cells) | number of involved paws vs control mice ([1]; 40 mg/kg i.p. ×3/week or gavaged ×5/week, irrespective of the route of administration) | reduction in arthritis score vs saline control ([1]; 40 mg/kg i.p. ×3/week, p<0.02 from Day 23, p<0.007 at Day 24, sustained until end of trial) | effect upon arthritis score vs saline control ([1]; 40 mg/kg oral gavage ×5/week) | arthritis score vs saline control treated mice (FIG. 2), overall statement [1] | Day post the start of therapy from which a significant reduction (p<0.02) in arthritis score was achieved [1] [days] | total serum Ig levels at the terminal bleed vs control mice (total serum Ig) | terminal anti-CII levels compared with control mice [2] | terminal anti-CII levels compared with titers at disease onset [2] | number of involved (arthritic) paws vs control mice ([1]; prednisolone 10 mg/kg gavaged ×5/week, from Day 16 after arthritis onset throughout the study, p<0.002) | reduction in arthritis score vs saline control ([1]; prednisolone 10 mg/kg gavaged ×5/week, p<0.02 from Day 12, p<0.001 at day 17, sustained for remainder of trial) | number of involved (arthritic) paws vs control mice ([1]; 100 μg Enbrel i.p. ×3/week, Day 25 through Day 28, p<0.05) | reduction in arthritis score vs saline control ([1]; 100 μg Enbrel i.p. ×3/week, p<0.02 from Day 12, not sustained until 23 days of therapy)
1 | COc1cccc2c1[n+]([O-])c1cccc(O)c1[n+]2[O-] [compound of Formula III] | significant reduction | did not significantly influence the number of involved paws | significant reduction | did not exert a statistically significant effect | marked effect upon the arthritis score | 23 | this reduction was not significantly different | significant reduction | maintenance of titers equivalent to the levels at onset | – | – | – | –
2 | C[C@]12C=CC(=O)C=C1CC[C@@H]1[C@@H]2[C@@H](O)C[C@@]2(C)[C@H]1CC[C@]2(O)C(=O)CO [prednisolone] | – | – | – | – | significantly reduced the arthritis score | 12 | this reduction was not significantly different | significant reduction | minor decrease | significantly lower number of arthritic paws | significant reduction | – | –
3 | Enbrel | – | – | – | – | significantly reduced the arthritis score | 12 | – | – | – | – | – | significantly lower number of arthritic paws | significant reduction

From patent US8273881B2, “Phenazine compounds and use thereof in autoimmune and inflammatory diseases” (JJ Pharma, Inc., priority 2007, dated 2012)
